According to paper PMC11452715, “Pharmacokinetic and pharmacodynamic evaluation of various vasopressin doses and routes of administration in a neonatal piglet model” (Scientific Reports, 2024):

Tests used:
[1] = test system: adults with out-of-hospital cardiac arrest; design: method as in PMID 14711909; settings: adults with asystolic arrest, cited from earlier work; for rate of survival to hospital admission: p = 0.02; for rate of survival to discharge: p = 0.04
Excerpt: (§1) Vasopressin, an antidiuretic hormone, might be an alternative to epinephrine, as its efficacy is not impaired during metabolic or respiratory acidosis[3],[4],[9].

[2] = test system: patients < 18 years of age; design: method as in PMID 21926666; settings: vasopressin (0.8 IU/kg) after an initial epinephrine dose (n = 10) vs ≥ 2 doses of epinephrine; cited from earlier work
Excerpt: as §1

[3] = test system: neonatal piglets; assay: Hemodynamic and cardiac function parameters after vasopressin administration in healthy neonatal piglets; format: in vivo, piglet; settings: for ejection fraction / cardiac output: one minute after drug administration, n = 5
Excerpt: Piglets were instrumented as previously described with modifications[15]–[17]. Following the induction of anaesthesia using isoflurane, piglets were intubated via a tracheostomy, and pressure-controlled ventilation (Sechrist Infant Ventilator Model IV-100; Sechrist Industries, Anaheim, California) was commenced at a respiratory rate of 16–20 breaths/min and pressure of 20/5 cmH2O. Oxygen saturation was kept within 90–100%, glucose level and hydration was maintained with an intravenous infusion of 5% dextrose at 10 mL/kg/hr. During the experiment anaesthesia was maintained with intravenous propofol 5–10 mg/kg/hr and morphine 0.1 mg/kg/hr. Additional doses of propofol (1–2 mg/kg) and morphine (0.05–0.1 mg/kg) were also given as needed. The piglet’s body temperature was maintained within a normal porcine temperature range of 38.5–39.5 °C using an overhead warmer and a heating pad.
A 5-French Argyle® (Klein-Baker Medical Inc. San Antonio, TX) double-lumen catheter was inserted via the right femoral vein for administration of fluids and medications. A 5-French Argyle® single-lumen catheter was inserted above the right renal artery via the femoral artery for continuous arterial blood pressure monitoring in addition to arterial blood gas measurements. The right common carotid artery was also exposed and encircled with a real-time ultrasonic flow probe (2 mm; Transonic Systems Inc., Ithica, NY) to measure cerebral blood flow[15]–[17]. A Millar® catheter (MPVS Ultra1, ADInstruments, Houston, TX) was inserted into the left ventricle via the left common carotid artery for continuous measurement of stroke volume, ejection fraction, end-diastolic and -systolic volumes, left ventricular pressure, and left ventricular contractile function (dp/dtmax, dp/dtmin)^19,20.
Piglets were placed in supine position and allowed to recover from surgical instrumentation until baseline hemodynamic measures were stable (minimum of one hour). Ventilator rate was adjusted to keep the partial arterial CO2 between 35 and 45 mmHg as determined by periodic arterial blood gas analysis. Mean systemic arterial pressure (MAP), systemic systolic arterial pressure, heart rate, and percutaneous oxygen saturation were continuously measured and recorded throughout the experiment with a Hewlett Packard 78833B monitor (Hewlett Packard Co., Palo Alto, CA)[15]–[17].
(§2) Piglets were randomized into four routes and various vasopressin doses: (1) IV vasopressin (0.4IU/kg; n = 5, control), (2) IO vasopressin (n = 5/dose; 0.2IU/kg, 0.4IU/kg, or 0.8IU/kg), (3) ETT vasopressin (n = 5/dose; 4IU/kg, 8IU/kg, or 16IU/kg), (4) IN vasopressin (n = 3/dose; 8IU/kg, 16IU/kg, or 32IU/kg). In all groups, a 3mL saline bolus was administered immediately after the vasopressin dose[20],[21].
(§3) Preliminary tests on a few piglets were conducted to determine the optimal ETT vasopressin doses. […] All piglets, regardless of randomization, underwent insertion of an intraosseous needle during surgical instrumentation to ensure each piglet underwent similar surgical procedures. Arterial blood was collected before vasopressin administration (baseline), 1, 2, 3, 4, 5, and 10 min after vasopressin administration. Following final collection of blood, piglets were euthanized with an intravenous overdose of sodium pentobarbital (100 mg/kg).
Demographics of study piglets were recorded. Transonic flow probes, heart rate, and pressure transducer outputs, and Millar catheter were digitized and recorded with LabChart® programming software (ADInstruments, Houston, TX). Blood samples were collected and centrifuged at 11,000 rpm for five minutes, plasma was then separated and stored at -80 °C. Concentrations of vasopressin were quantified using commercially available ELISA kits (K049-H1, Arbor Assays, Ann Arbor, Michigan, USA). Analysis of pharmacokinetic parameters was performed with the Non-Compartmental Analysis program of the SimBiology Model Analyzer app within MATLAB (MATLAB ver. R2023b, MathWorks, Natick, MA, USA). […]

[4] = Plasma vasopressin concentrations (ELISA) and non-compartmental pharmacokinetic analysis in neonatal piglets; format: in vivo, piglet; settings: for plasma vasopressin concentrations compared to IV vasopressin / plasma concentrations compared to IV vasopressin / Cmax: ELISA; for Tmax compared to IV vasopressin: p < 0.05; for Cmax: pig, plasma, mean (SD), SD
Experimental: as §2, §3
Demographics of study piglets were recorded. Transonic flow probes, heart rate, and pressure transducer outputs, and Millar catheter were digitized and recorded with LabChart® programming software (ADInstruments, Houston, TX). Blood samples were collected and centrifuged at 11,000 rpm for five minutes, plasma was then separated and stored at -80 °C. Concentrations of vasopressin were quantified using commercially available ELISA kits (K049-H1, Arbor Assays, Ann Arbor, Michigan, USA). Analysis of pharmacokinetic parameters was performed with the Non-Compartmental Analysis program of the SimBiology Model Analyzer app within MATLAB (MATLAB ver. R2023b, MathWorks, Natick, MA, USA).
The data was tested for normality (Shapiro-Wilk and Kolmogorov-Smirnov test) and compared using ANOVA for repeated measures using Tukey post-test for parametric and Dunn’s test for nonparametric comparisons of continuous variables, and Fisher’s exact test for categorical variables. The data are presented as mean (standard deviation - SD) for normally distributed continuous variables and median (interquartile range - IQR) when the distribution was skewed. P-values are 2-sided and p < 0.05 was considered statistically significant. Statistical analyses were performed with SigmaPlot (Systat Software Inc, San Jose, USA).

[5] = test system: pediatric patients; settings: 0.4IU/kg/dose IV as rescue therapy; cited from earlier work
Excerpt: Vasopressin, an antidiuretic hormone, might be an alternative to epinephrine, as its efficacy is not impaired during metabolic or respiratory acidosis[3],[4],[9]. […] Similarly, in a case series of four pediatric patients’ vasopressin at 0.4IU/kg/dose IV administered as rescue thera ...

[6] = 0.8IU/kg IV vasopressin, four hours after resuscitation; cited from earlier work
Excerpt: This may result from the non-statistically significant lower baseline ejection fraction in 0.4IU/kg IO vasopressin piglets compared to 0.8IU/kg IO vasopressin piglets (Table 1).

[7] = 0.4IU/kg IO vasopressin, vs baseline
[8] = 0.4IU/kg IV vasopressin (control)

CNC[C@H](O)c1ccc(O)c(O)c1 [epinephrine]
rate of survival to hospital admission [1]: 20%
rate of survival to discharge [1]: 2%
24 h survival [2]: 30%

NC(=O)CC[C@@H]1NC(=O)[C@H](Cc2ccccc2)NC(=O)[C@H](Cc2ccc(O)cc2)NC(=O)[C@@H](N)CSSC[C@@H](C(=O)N2CCC[C@H]2C(=O)N[C@@H](CCCN=C(N)N)C(=O)NCC(N)=O)NC(=O)[C@H](CC(N)=O)NC1=O [vasopressin]
time after drug administration for which cardiac output significantly decreased ([3]; 0.2IU/kg IO vasopressin): one
carotid blood flow compared to IV vasopressin ([3]; 0.2IU/kg IO vasopressin, for four minutes, vs 0.4IU/kg IV): significantly higher
time for which MAP significantly increased ([3]; 0.2IU/kg IO vasopressin, vs baseline): two minutes
time post-drug administration for which carotid blood flow was decreased ([3]; 0.2IU/kg IO vasopressin, comparable to baseline from three to 10 min): two
time after drug administration for which cardiac output significantly decreased ([3]; 0.4IU/kg IO vasopressin): two
ejection fraction ([3]; 0.4IU/kg IO vasopressin, p = 0.042 vs IV): 8.4 (7.7–9.8) %
time for which MAP significantly increased [3, 7]: five minutes
time post-drug administration for which carotid blood flow significantly decreased [3, 7]: five
cardiac output [3, 8]: 193.1 (170.3–365.8) mL/kg/min
ejection fraction [3, 8]: 23.3 (22.5–32.6) %
time for which MAP significantly increased ([3]; 0.4IU/kg IV vasopressin, vs baseline): five minutes
MAP and dP/dT minimum, IV vasopressin compared to all IN vasopressin doses ([3]; 0.4IU/kg IV vs 8, 16, 32IU/kg IN): significantly higher
time for which MAP significantly increased ([3]; 0.8IU/kg IO vasopressin, vs baseline): five minutes
dP/dT minimum compared to IV vasopressin ([3]; 4IU/kg ETT vasopressin vs 0.4IU/kg IV): significantly lower
cardiac output ([3]; 4IU/kg ETT vasopressin, p = 0.045 vs IV): 466 (394–558) mL/kg/min
hemodynamic response ([3]; 4IU/kg IN vasopressin, preliminary, doses then increased): lack of hemodynamic response
carotid blood flow, IN vasopressin doses compared to IV vasopressin ([3]; 8, 16, 32IU/kg IN vs 0.4IU/kg IV): higher
dP/dT minimum compared to IV vasopressin ([3]; 16IU/kg ETT vasopressin vs 0.4IU/kg IV): significantly lower
heart rate, dP/dT maximum or minimum compared to baseline values or IV vasopressin ([3]; any IO-administered vasopressin dose (0.2, 0.4, 0.8IU/kg)): no significant changes
changes from baseline in heart rate, carotid blood flow, cardiac output, ejection fraction, stroke volume, dP/dT maximum or minimum ([3]; any doses within the IN route (8, 16, 32IU/kg)): no changes
changes from baseline in heart rate, carotid blood flow, cardiac output, ejection fraction, stroke volume, dP/dT maximum or minimum ([3]; any vasopressin dose administered endotracheally (4, 8, 16IU/kg)): no changes from baseline
plasma vasopressin concentrations compared to IV vasopressin ([4]; 4IU/kg ETT vasopressin, two minutes after drug administration): significantly lower
plasma vasopressin concentrations compared to IV vasopressin ([4]; 8IU/kg ETT vasopressin, three minutes after drug administration): significantly lower
plasma concentrations compared to IV vasopressin ([4]; 8IU/kg IN vasopressin, 1-10 min): significantly lower plasma concentrations at all measured time points
plasma vasopressin concentrations compared to IV vasopressin ([4]; 16IU/kg ETT vasopressin, five minutes after drug administration): significantly lower
plasma concentrations compared to IV vasopressin ([4]; 16IU/kg IN vasopressin, 1-10 min): significantly lower plasma concentrations at all measured time points
plasma concentrations compared to IV vasopressin ([4]; 32IU/kg IN vasopressin, 10-minutes after drug administration): comparable
Tmax compared to IV vasopressin ([4]; 32IU/kg IN vasopressin): significantly higher
Tmax compared to IV vasopressin ([4]; all ETT vasopressin doses (4, 8, 16IU/kg)): significantly higher
plasma vasopressin concentrations compared to IV vasopressin ([4]; any IO vasopressin dose (0.2, 0.4, or 0.8IU/kg) vs 0.4IU/kg IV): no differences
pharmacokinetic parameters (Cmax, AUC, Tmax, clearance, half-life), IV vs IO ([4]; any IO vasopressin dose vs 0.4IU/kg IV): comparable
Cmax ([4]; endotracheal, 4IU/kg ETT vasopressin, n = 5, p < 0.0001 vs IV): 0.958 ng/mL
Cmax ([4]; inhaled or intranasal, 8IU/kg IN vasopressin, n = 3, p < 0.0001 vs IV): 0.384 ng/mL
Cmax ([4]; inhaled or intranasal, 16IU/kg IN vasopressin, n = 3, p < 0.0001 vs IV): 0.399 ng/mL
Cmax ([4]; 0.4IU/kg IV vasopressin (control), n = 5): 2.25 ng/mL
rate of survival to hospital admission [1]: 29%
rate of survival to discharge [1]: 5%
achieved ROSC [5]: 3/4
survived > 24 h [5]: 2/4
survived to hospital discharge [5]: 1/4
24 h survival [2]: 80%
base excess and lactate concentrations compared to 0.4IU/kg IV vasopressin [6]: significantly higher
